According to article PMC9295122, “Sialic Acid Derivatives Inhibit SiaT Transporters and Delay Bacterial Growth” (ACS Chemical Biology, 2022):

Target: SiaT from S. aureus (Staphylococcus aureus, UniProt A0A0H2XJ46)
Test: [3H]Neu5Ac uptake in proteoliposomes, SaSiaT
Conditions: for type of inhibition: SaSiaT, Lineweaver–Burk plot
Experimental: To gain further insights into the molecular mechanisms, we investigated the direct effects of compounds 3e and 3f on the transport activity in proteoliposomes reconstituted with PmSiaT and SaSiaT. A kinetic analysis was performed by measuring the concentration-dependent uptake of [^3H]Neu5Ac in the presence of two different concentrations of the inhibitors 3f (Figure 5a,c) or 3e (Figure 5b,d).
Figure 5 Kinetic analysis of the inhibition of recombinant SiaT from P. mirabilis (A,B) and S. aureus (C,D) reconstituted in proteoliposomes and [^3H]Neu5Ac efflux in proteoliposomes (E,F). (a–d) Data were plotted according to Lineweaver–Burk as a reciprocal transport rate vs reciprocal Neu5Ac concentration. The transport rate was measured, in 5 min, by adding [^3H] Neu5Ac at the indicated concentrations to proteoliposomes containing 20 mM K^+-gluconate in the presence of valinomycin as described in the Supporting Information. [(A,B) P. mirabilis SiaT]; (A) compound 3f 0.25 μM (●) or 0.75 μM (□) was added in comparison to samples without inhibitor (○). (B) Compound 3e 12 μM (●) or 40 μM (□) was added in comparison to samples without an inhibitor (○). [(C,D) S. aureus SiaT]. (C) Compound 3f 80 μM (●) or 200 μM (□) was added in comparison to samples without an inhibitor (○). (D) Compound 3e 5 μM (●) or 12 μM (□) was added in comparison to samples without an inhibitor (○). Results are mean ± s.d. from four independent experiments (n = 4). […] Data are calculated as the percent of residual activity with respect to the control sample (efflux time zero). The results are the means ± s.d. of three independent experiments.
The purified SiaT from P. mirabilis and S. aureus was reconstituted by using the detergent removal procedure with the batchwise method previously pointed out.[16],[21] In brief, 2.5 μg or 5 μg of P. mirabilis and S. aureus SiaT, respectively, were mixed with 120 μL 10% C12E8, 100 μL of 10% egg yolk phospholipids (w/v, in the form of sonicated liposomes as previously described),[43] […]
For uptake experiments, 600 μL of proteoliposomes were loaded onto a Sephadex G-75 column (0.7 cm diameter × 15 cm height), pre-equilibrated with 20 mM Hepes Tris pH 7.0 with 40 mM sucrose to balance the internal osmolarity. […] For kinetic measurement, the initial transport rate was measured by stopping the reaction after 5 min, that is, within the initial linear range of [^3H]-Neu5Ac uptake into the proteoliposomes previously described. […] In both uptake and efflux experiments, the transport assay was terminated by loading each proteoliposome sample (100 μL) on a Sephadex G-75 column (0.6 cm diameter × 8 cm height) to remove the external radioactivity. Proteoliposomes were eluted with 1 mL of 50 mM NaCl and collected in a 4 mL of scintillation mixture, vortexed and counted.

Chain of SiaT from S. aureus (A0A0H2XJ46 entry or part of it): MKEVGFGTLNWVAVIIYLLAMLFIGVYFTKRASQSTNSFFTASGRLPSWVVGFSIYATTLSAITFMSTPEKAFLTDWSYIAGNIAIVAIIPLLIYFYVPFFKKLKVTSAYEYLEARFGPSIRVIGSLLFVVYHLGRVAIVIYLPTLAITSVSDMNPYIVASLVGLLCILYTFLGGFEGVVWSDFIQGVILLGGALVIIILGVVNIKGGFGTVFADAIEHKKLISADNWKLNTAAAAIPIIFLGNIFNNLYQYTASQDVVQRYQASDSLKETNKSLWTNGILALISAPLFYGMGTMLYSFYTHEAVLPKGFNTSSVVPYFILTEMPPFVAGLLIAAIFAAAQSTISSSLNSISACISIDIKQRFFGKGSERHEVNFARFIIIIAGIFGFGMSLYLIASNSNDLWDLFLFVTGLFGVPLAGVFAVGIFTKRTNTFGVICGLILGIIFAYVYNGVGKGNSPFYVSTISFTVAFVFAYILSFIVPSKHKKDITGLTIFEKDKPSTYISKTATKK

| Compound | Ki [µM] | type of inhibition |
| --- | --- | --- |
| CC(=O)NC1C(OCc2cc(F)cc(F)c2)CC(O)(C(=O)O)OC1C(O)C(O)CO (stereo not shown) [Compound 3e] | 2.8 ± 0.5 | competitive inhibitors |
| CC(=O)NC1C(OCc2cc(Br)cc(Br)c2)CC(O)(C(=O)O)OC1C(O)C(O)CO (stereo not shown) [Compound 3f] | 53.6 ± 11.1 | competitive inhibitors |
